{
  "source": "patent US20130195926A1",
  "about": "“MODULATION OF NITRIC OXIDE SIGNALING TO NORMALIZE TUMOR VASCULATURE” (The General Hospital Corporation, priority 2007, published 2013)",
  "key": {"10T1/2 cells": {"system": "10T1/2 cells", "assay": "Transwell migration of 10T1/2 cells toward HUVECs", "type": "cell-based", "method": "FIGS. 13A-C show the role of the NO-sGC-cGMP pathway in perivascular cell recruitment and migration. (A) In bar graph form, cGMP production in cultured 10T1/2 cells in response to NO donor or PDE5 inhibitor. (B) In bar graph form, the migration of 10T1/2 cells in a transwell assay. 10T1/2 cell migration was assessed using Falcon HTS FluoroBlok inserts with 1 μm pores. GFP-expressing 10T1/2 cells were inoculated in the inserts, and HUVECs were inoculated in the outer well. Percent area of transwell filter covered by migrated 10T1/2 cells was determined. Medium only indicates no HUVECs in the outer well. ODQ, T-1032, Sildenafil, or Sildenafil+L-NMMA were added to the medium. *P<0.05 vs. control (HUVEC). (C) Images for transmigrated GFP-10T1/2 cells at the back side of the Fluoroblock insert after 10 hours with control vs. T-1032 treatment.\nFIGS. 14A-B show the effect of PI3K inhibition on transwell migration of 10T1/2 cells toward HUVECs. 10T1/2 cell migration was assessed using Falcon HTS FluoroBlock inserts with 1 μm pores. GFP-expressing 10T1/2 cells were inoculated in the inserts and human umbilical vein endothelial cells (HUVECs) were inoculated in the outer well. (A) Images for transmigrated GFP-10T1/2 cells at the back side of the FluoroBlock insert after 16 hours. Images are 865 μm across. (B) Quantification of 10T1/2 cell transwell migration. Data are expressed as percentage relative to the control (HUVEC) migration of the same experimental batch. Medium represents no HUVECs in the outer well. LS294002 10 μM was added. n=4 each. *p<0.05 as compared to the control (HUVEC).\nThe effect of sGC inhibitor was next examined on 10T1/2 cell migration. […] Finally, the effect of PDE5 inhibitors on 10T1/2 cell migration was examined. […] L-NMMA abolished induction of 10T1/2 cell migration induced by Sildenafil. (Mann-Whitney U-test).\nTo elucidate the downstream signaling pathway of NO-dependent perivascular cell recruitment, the effect of PI3K inhibitor […] (10 μM) on the transwell 10T1/2 cell migration toward HUVECs was determined (FIG. 14A-B)."}, "U87MG tumors": {"system": "U87MG tumors", "assay": "Vessel morphology of U87 tumors in the cranial window by intravital microscopy", "type": "in vivo, mice", "conditions": "L-NMMA 7 mg/day by osmotic pump vs D-NMMA, SCID mice", "method": "(§1) Recombination activating gene 1 (Rag-1^−/−) mice backcrossed to C57BL/6 background or severe combined immunodeficiency (SCID) mice, bred and maintained in an gnotobiotic animal facility, were used. To obtain source tumor tissue, U87 tumor cells in culture (1×10^6 cells) were injected subcutaneously into Rag-1^−/− or SCID mice matching the recipient mice. When the tumor reached about 8 mm in diameter, it was excised after euthanasia and a small piece (about 1 mm^3) of viable tumor tissue was implanted into a cranial window or subcutaneously into the calf area of the right hindlegs of the mice as previously described (Kashiwagi, S., et al. 2005 J. Clin. Invest. 115, 1816-1827; Kozin, S. V., et al. 2001 Cancer Research 61, 39-44). All animal procedures were carried oat following the Public Health Service Policy on Humane Care of Laboratory Animals and approved by the Institutional Animal Care and Use Committee of Massachusetts General Hospital. […]\nAngiogenesis and vessel morphology were determined in U87 and GL261 tumors grown in the cranial windows by intravital microscopy using multiphoton laserscanning microscopy (MPLSM) or single photon fluorescence microscopy (SPFM) when tumors reached about 7 mm^2. […] Using MPLSM, five locations with 200-μm thick imaging stack were recorded for each tumor. […]\n(§2) Vascular parameters such as functional vessel density (the total length of perfused microvessels per unit area) and vessel diameter were analyzed by tracing each vessel segment using NIH image 1.63 as described elsewhere (Kashiwagi, S., et al. 2005 J. Clin. Invest. 115, 1816-1827). Tissue distribution of NO was visualized using MPLSM and the NO-sensitive fluorescence probe 4,5-diaminofluorescein (DAF-2) (0.5 mg i.v. Daiichi Pure Chemicals Co. Ltd) as described previously (Kashiwagi, S., et al. 2005 J. Clin. Invest. 115, 1816-1827). NO converts DAF-2 to 4,5-diaminofluorescein triazolium (DAF-2T) increasing fluorescence by a factor of 200. The DAF-2 associated fluorescence images were captured 60 min after i.v. injection. […]"}, "U87 gliomas": {"system": "U87 gliomas", "assay": "NO distribution in U87 gliomas by DAF-2T fluorescence (MPLSM)", "type": "in vivo, mice", "conditions": "animals treated with L-NMMA compared to D-NMMA", "method": "FIGS. 3A-B show microfluorographs depicting NO distribution in U87 gliomas grown in the cranial window in Rag-1^−/−. NO production was visualized by means of DAF-2T fluorescence 0, 20, 40 and 60 min after DAF-2 (0.5 mg/body) injection. Left column, micro-angiography with tetramethylrhodamine-dextran (2000 kDa). Middle column, representative DAF-2T microfluorography captured 60 min after the loading of DAF-2 in tumors. Right column, pseudocolor representation of DAF-2T microfluorographs. […] Bars indicate 100 μm. (A) NO distribution in parental U87MG (top row) or nNOS shRNA58-transfected-U87 (bottom row) tumors. […]\nas §2"}, "nNOS [1]": {"system": "nNOS", "assay": "Western blot of nNOS knockdown in U87 tumors grown in cranial windows", "type": "in vivo", "conditions": "U87 tumors in cranial windows in Rag-1-/- mice", "method": "The stably transfected cells were selected with 80 μg/ml of hygromycin B. The expression of nNOS protein in U87 tumor cells and tissues was determined by'Western blot analysis. Cultured U87MG cells washed with PBS and U87MG tumors homogenized by a tissue grinder were solubilized in 40 mM Tris-HCl, pH 6.8, 2% SDS, 10% glycerol, 1% β-mercaptoethanol, 0.01% bromophenol blue with one Complete Mini Protease Inhibitor Cocktail tablet (Roche Diagnostics) per 50 ml buffer.\n(§3) Equal amounts of 60 micrograms of protein per sample were separated on 7.5% SDS polyacrylamide gels, transferred onto polyvinylidene fluoride membrane (Millipore), incubated with primary antibodies followed by secondary antibodies (the same antibodies used in immunohistochemistry studies. See Immunohistochemistry methods below), and detected using enhanced chemiluminescence (GE Healthcare) by exposure on autoradiography films (Kodak) (Xu, L., et al. 2005 Cancer Res. 65, 5711-5719; Canneliet, P., et al. 1998 Nature 394, 485-490; Xu, L., et al. 2002 Journal of Biological Chemistry 277, 11368-11374 (2002); and Xu, L., et al. 2004 Clinical Cancer Research 10, 701-707).\nas §1, with “39-44).” for “39-44). All animal procedures were carried oat following the Public Health Service Policy on Humane Care of Laboratory Animals and approved by the Institutional Animal Care and Use Committee of Massachusetts General Hospital.”\nU87 with nNOS shRNA (shRNA58, shRNA97, and shRNA150) were grown in cranial windows in Rag-1^−/− mice. Expression of nNOS in these tumors was determined by Western blot analysis. […]"}, "nNOS [2]": {"system": "nNOS", "assay": "Western blot of nNOS knockdown in cultured nNOS shRNA-transfected U87 cells", "type": "cell-based, human", "method": "U87MG (American Type Culture Collection HTB-14) and GL261 (generous gift from Dr. G. Yancey Gillespie at University of Alabama) tumor cells were cultured in Dulbecco's Modified Eagle's Medium with 10% fetal bovine serum at 37° C. in a humidified 5% CO2 incubator. The following short-hairpin RNAs (shRNAs) for nNOS were designed using a commercial service program for small interfering RNA (siRNA) target finder (http://www.ambion.com/techlib/misc/siRNA_finder.html): nNOS-shRNA58, CAAAGAGATCGACACCATC (sense), […] (antisense); nNOSshRNA97, CACGCATGTCTGGAAAGGC (sense), […](antisense); nNOS-shRNA150, GGTCTATCCAATGTCCACA (sense), […] (antisense). The DNA oligonucleotides consist of a 19-nucleotide sense siRNA sequence linked to its reverse complementary antisense siRNA sequence by a short spacer (TTCAAGAGA).\nEach DNA oligonucleotide was prepared with nucleotide overhangs with BamHI and HindIII restriction sites added to the 5′ and 3′ end of the DNA oligonucleotides and subcloned into the pSilencer 3.1 H-1-hygro (Ambion) that allows transcription of the shRNA. These expression vectors were stably transfected into U87MG cells using LipofectAMINE 2000 (Invitrogen) following the manufacturer's instruction.\nThe stably transfected cells were selected with 80 μg/ml of hygromycin B. The expression of nNOS protein in U87 tumor cells and tissues was determined by'Western blot analysis. […]\nas §3, with “701-707). […]” for “701-707).”"}},
  "data": [
    {"molecule": "O=c1onc2cnc3ccccc3n12", "note": "[ODQ]", "values": [
      {"measurement": "10T1/2 cell migration to HUVECs", "setting": "10T1/2 cells; 10μM", "value": "significantly reduced"}
    ]},
    {"molecule": "O=c1cc(N2CCOCC2)oc2c(-c3ccccc3)cccc12", "note": "[LY291002]", "values": [
      {"measurement": "transwell 10T1/2 cell migration toward HUVECs", "setting": "10T1/2 cells; 10 μM, 16 hours", "value": "significantly inhibited"}
    ]},
    {"molecule": "CC(=O)O.CNC(=N)NCCC[C@H](N)C(=O)O", "note": "[L-NMMA, NG-Monomethyl-L-arginine monoacetate]", "values": [
      {"measurement": "vessel density", "setting": "U87MG tumors", "value": "decreased"},
      {"measurement": "vessel diameter", "setting": "U87MG tumors", "value": "increased"},
      {"measurement": "induction of 10T1/2 cell migration induced by Sildenafil", "setting": "10T1/2 cells; Sildenafil+L-NMMA", "value": "abolished"},
      {"measurement": "DAF-associated fluorescence (NO production)", "setting": "U87 gliomas", "value": "abolished"}
    ]},
    {"molecule": "CCCc1nn(C)c2c(=O)[nH]c(-c3cc(S(=O)(=O)N4CCN(C)CC4)ccc3OCC)nc12", "note": "[Sildenafil]", "values": [
      {"measurement": "10T1/2 cell migration", "setting": "10T1/2 cells; 40 nM", "value": "significantly enhanced"}
    ]},
    {"molecule": "shRNA97: short-hairpin RNA for nNOS, CACGCATGTCTGGAAAGGC (sense), GCCTTTCCAGACATGCGTGTT (antisense), in pSilencer 3.1 H-1-hygro", "values": [
      {"measurement": "Knockdown efficiency of nNOS in vivo", "setting": "nNOS [1]", "value": 67, "unit": "%"},
      {"measurement": "Knockdown efficiency of nNOS in vitro", "setting": "nNOS [2]", "value": 98, "unit": "%"}
    ]}
  ]
}
